Source: US20110178015A1, “METHODS OF TREATMENT USING BIASED LIGANDS FOR RECEPTORS SUCH AS THE PTH RECEPTOR” (priority 2007, published 2011)
Entries after “also recorded” stand apart in the source; their conditions may differ.

Assays:
[1] = system: WT and β-arrestin 2−/− mice; assay: qCT of the midfemoral shaft (cortical bone); type: in vivo; conditions: for femoral periosteal circumference / midshaft cortical thickness: WT mice; for femoral periosteal circumference / midshaft cortical thickness / cortical thickness / periosteal circumference: 8 wks; for endosteal bone surfaces: WT or β-arrestin−/− mice, data not shown; for cortical thickness / periosteal circumference: β-arrestin 2−/− mice
From the text: Finally, the effects of PTH(1-34) and PTH-βarr on cortical bone were examined by qCT of the midfemoral shaft (FIGS. 3D and E). […] However the β-arrestin 2−/− mice had greater midshaft cortical thickness than vehicle treated WT mice. […] The biased agonist, PTH-βarr had no effect on these cortical indices in WT mice.

[2] = system: WT and β-arrestin 2−/− mice; assay: Quantitative microCT of the lumbar spine (trabecular bone); type: in vivo; conditions: for percent increase in Tb bone density: vs vehicle, 8 weeks
From the text: FIG. 4. β-arrestin 2 dependent signaling contributes to increases in trabecular bone but not cortical bone. Quantitative microCT of the lumbar spine was used to determine the effect vehicle, PTH (1-34) (PTH), or PTH-barr on (a) trabecular bone (Tb) density (BV/TV), (b) Tb thickness and (c) Tb number in WT and β-arrestin 2−/− mice after 8 wks of treatment. PTH and PTH-βarr increased tb density, tb thickness, and tb number in WT treated animals. The effects of PTH-βarr were absent in the β-arrestin −/− animals consistant with a b-arrestin mediated mechanism of anabolic bone formation. Data represent the mean±SEM of at least 7 independent mouse measurements. (***, P<0.001; **, P<0.01; *, P<0.05 compared with vehicle treated WT mice; if, P<0.01; t, P<0.05 compared with vehicle treated β-arrestin 2−/− mice).
Quantitative microCT (qCT) measurements of the lumbar spine were acquired from WT and β-arrestin 2−/− mice after 8 weeks of treatment with vehicle, PTH(1-34), or PTH-βarr. There was no significant difference in the overall trabecular bone density (BV/TV) between vehicle treated WT and β-arrestin 2−/− mice (FIG. 3A). […] These differences in trabecular bone architecture in sham treated animals reflect two potential contributing processes 1) the loss of β-arrestin mediated signaling and 2) the exaggeration of Gs signaling due to the loss of β-arrestin desensitization.

[3] = system: WT and β-arrestin 2−/− mice; assay: 24 hour urine deoxypyridinoline (DPD), marker of bone resorption; type: in vivo; conditions: 4 weeks of treatment
Experimental: FIG. 5. PTH-βarr increases serum osteocalcin and has no effect on urine Deoxypyridinoline (DPD) excretion. (a) Serum osteocalcin, a biochemical marker of bone formation was measured in WT and β-arrestin 2−/− mice after 4 weeks of treatment with vehicle, PTH (1-34) (PTH) or PTH-βarr. […] There was no increase in serum osteocalcin in the arrestin 2−/− mice treated with PTH-βarr compared to placebo. […] (b) 24 hour urine DPD, a marker of bone degradation and bone resorption, was also measured in WT and β-arrestin 2−/− mice after 4 weeks of treatment with vehicle, PTH or PTH-βarr. […] Data represent the mean±SEM of at least 7 independent mouse measurements. (***, P<0.001; *, P<0.05; compared with vehicle treated WT mice; †††, P<0.001; ††, P<0.01 compared with vehicle treated β-arrestin 2−/− mice).
265. 24 hour urine deoxypyridinoline (DPD), a marker of bone degradation and bone resorption, was also measured. […] The increase in urine DPD excretion in the PTH(1-34) treated β-arrestin 2−/− mice compared to WT further supports the hypothesis that osteoblast-osteoclast coupling is meditated primarily through G protein dependent mechanisms that are disinhibited in the absence of β-arrestin 2.

[4] = system: WT and β-arrestin 2−/− mice; assay: Bone mineral density after intermittent daily IP treatment; type: in vivo; conditions: once daily IP 40 mg/kg/day, 4 and 8 weeks
Experimental: FIG. 3. PTH-βarr increases lumbar spine bone mineral density. The effect of daily administration of vehicle, PTH (1-34)(PTH) or PTH-βarr on bone mineral density after 4 and 8 weeks was measured in the (a) lumbar spine of WT mice (b) lumbar spine of β-arrestin 2−/− (c) femur shaft of WT mice and (d) femoral shaft of β-arrestin 2−/− mice. […] Data represents the mean±SEM of at least 7 independent mouse measurements. (*, P<0.05; **, P<0.01 compared with vehicle treated controls)
β-arrestin 2−/− mice are fertile and present no gross phenotypic abnormalities. Further, no gross alterations in skeletal morphology or size were detected by x-ray analysis of β-arrestin 2−/− mice compared to 6 WT mice (data not shown). To examine the contribution of β-arrestin mediated signaling to regulation of the anabolic effects of PTH on bone, 9 week old WT and β-arrestin 2−/− mice were treated with intermittent (i.e. once daily) IP injection of PTH (1-34) (40 mg/kg/day), the β-arrestin biased agonist PTH-βarr (40 mg/kg/day). Its usually mg/kg/day) or vehicle. Bone mineral density (BMD) measurements were obtained at baseline and serially over 4 to 8 wks (FIG. 2). […] There were no significant differences in whole body BMD or femoral BMD between the WT or β-arrestin 2−/− mice. […] Consistent with earlier reports, these increases in BMD were absent in the PTH(1-34) treated β-arrestin 2−/− mice (FIGS. 2B and D). […] The decrease in BMD in β-arrestin 2−/− mice treated with PTH-βarr, are likely due to the inhibition of G protein mediated signaling as well as the absence of β-arrestin 2 mediated signaling.

[5] = system: WT and β-arrestin 2−/− mice; assay: Quantitative histomorphometry of lumbar spine sections; type: in vivo; conditions: for osteoblast surface vs vehicle / osteoclast surface (osteoclast recruitment) / osteoid surface vs vehicle: WT mice, 8 wks, lumbar spine sections
From the text: Dynamic histomorphometric data were consistent with the qCT of trabecular bone morphology. […] As expected there was an increase in osteoclast surface in the PTH (1-34) treated animals.

PTH1 receptor = conditions: cited from earlier work
[6] = WT mice, 8 weeks of daily treatment
[7] = β-arrestin 2−/− mice, 8 weeks of daily treatment
[8] = Gardella 1996, Sneddon 2004, Bisello 2002
[9] = WT mice, 8 weeks of daily treatment, listed as PTH

Substance	femoral periosteal circumference [1]	midshaft cortical thickness [1]	endosteal bone surfaces [1]	cortical thickness [1]	periosteal circumference [1]	lumbar spine trabecular bone density (BV/TV) vs vehicle [2, 6]	trabecular number vs vehicle [2, 6]	trabecular thickness vs vehicle [2, 6]	24 hour urine DPD vs vehicle ([3]; WT mice)	24 hour urine DPD vs vehicle ([3]; β-arrestin 2−/− mice)	femoral BMD vs vehicle ([4]; WT mice)	femoral BMD vs vehicle ([4]; β-arrestin 2−/− mice)	osteoblast surface vs vehicle [5]	osteoclast surface (osteoclast recruitment) [5]	osteoid surface vs vehicle [5]	also measured
(D-Trp12, Tyr34)-PTH(7-34) [PTH-βarr]	no effect	no effect	no significant effects	significantly decreased	significantly decreased	increased; also recorded: significant increase	increased; also recorded: significant increases	increased; also recorded: significant increases	no significant effect	no significant effect	did not significantly affect	decreases	increased	no effect	increased	trabecular number vs vehicle [2, 7]: absent; lumbar spine BMD vs vehicle ([4]; WT mice, 40 mg/kg/day): significant increases; PTH1 receptor-Gs coupling / cAMP production (PTH1 receptor; [8]): inverse agonist; arrestin-dependent sequestration / β-arrestin recruitment (PTH1 receptor; [8]): promoting arrestin-dependent sequestration; β-arrestin-dependent ERK1/2 activation (PTH1 receptor; in vitro, Gesty-Palmer 2006): elicit β-arrestin-dependent ERK1/2 activation
PTH(1-34) [reference compound]	increased	increased	no significant effects	no significant effect	no significant effect	significantly increased	significant increases	significant increases	significantly increased	significantly increased	marked increases	absent	increased	increase	increased	lumbar spine trabecular bone density (BV/TV) vs vehicle [2, 9]: increased; trabecular number vs vehicle [2, 9]: increased; trabecular thickness vs vehicle [2, 9]: increased; percent increase in Tb bone density ([2]; WT mice): 38%; trabecular bone density (BV/TV) vs vehicle [2, 7]: net increase; trabecular thickness vs vehicle [2, 7]: significant increases; percent increase in Tb bone density ([2]; β-arrestin 2−/− mice): 17%; 24 hour urine DPD vs vehicle ([3]; β-arrestin 2−/− mice, listed as PTH): increase; lumbar spine BMD vs vehicle ([4]; WT mice): marked increases; lumbar spine BMD vs vehicle ([4]; β-arrestin 2−/− mice): absent; osteoclast formation ([5]; in the absence of β-arrestin 2): accelerates
